In patent US20240390356A1, “HALOPERIDOL FOR USE IN THE TREATMENT OF SPINAL MUSCULAR ATROPHY” (UNIVERSITAT DE VALÈNCIA, priority 2021, published 2024):
Values joined by “and” are separate entries in the source; they are usually repeats but may differ in a detail not shown here. Equal entries are not always repeated.

Tests used:
[1] = tested on: co-culture of SMA type I motoneurons and SMA type I myoblasts; test: Motoneurons and myoblasts co-culture (MN survival, myotube area); assay type: cell-based, human; conditions: treatment every 3 days for 7 days, versus non-treated controls
Description: SMA type I (SMA) or healthy motoneurons (MN) derived from induced pluripotent stem cells were co-cultured with SMA type I or healthy myoblasts differentiated into myotubes. […] (B) Analysis of SMA myotubes area compared to the same controls as above. […] Myotubes were marked using MF20 marker (dark green), MNs were marked with ISL1 (red), acetylcholine receptors were marked with AChR (light green) and cell nuclei were stained with Hoechst (blue).
Primary cells were isolated from skeletal muscle as described previously (Chaouch et al. 2009). These cells were expanded and differentiated as previously described. Briefly, primary and immortalized myoblasts were expanded in a mix of 199 medium/Dulbecco modified Eagles minimal essential medium (1:4 ratio) supplemented with 20% fetal bovine serum (FBS), 25 μg/mL fetuin, 0.5 ng/ml basic fibroblast growth factor, 5 ng/ml epidermal growth factor, 5 μg/mL insulin. Cells were then cultivated in a growth medium consisting of DMEM-F12 glutamax (Life Technologies) supplemented with 20% FBS (Sigma-Aldrich) and 0.1% penicillin/steptomycin (Life Technologies). Myogenic differentiation was induced by switching growth medium to DMEM supplemented with 2% horse serum (Life Technologies).
For co-culture, spinal MNs must be differentiated from hiPSC as described previously, but the embryoid bodies are dissociated at day 14 of differentiation and frozen. […]

SMN = SMN expression by Western Blot in tissues of SMA Δ7 mice at P12; assay type: in vivo; conditions: P12, 0.5 mg/Kg s.c. daily
Protocol: FIG. 5. Analysis of SMN expression by Western Blot.
(§1) The efficacy of Haloperidol was then tested (University of Turin, Boido et al.) in SMA Δ7 mice (purchased from Jackson Laboratory, Maine, USA; stock number 005025). This triple mutant mouse harbors two transgenic alleles and a single targeted mutant. The Tg(SMN2*delta7)4299Ahmb allele consists of a SMN cDNA lacking exon 7 whereas the Tg(SMN2)89Ahmb allele consists of the entire human SMN2 gene. […] At birth, triple mutants are noticeably smaller than normal littermates; by day 5, signs of muscle weakness appear and become progressively more pronounced over the following week as the mice display an abnormal gait, shakiness in the hind limbs and a tendency to fall over. Mean survival is approximately 13 days.
(§2) Treated SMA mice subcutaneously received 0.5 mg/Kg Haloperidol, dissolved in 2% DMSO in saline solution (HALO group), whereas control mice received an equal amount of saline solution with 2% DMSO (VHL group). Haloperidol or saline solution were daily administered, from P2 (postnatal day 2) to P12 (day of sacrifice).
At P12, Halo and VHL animals were sacrificed, and fresh spinal cords and some skeletal muscles (diaphragm, quadriceps, and gastrocnemius) were rapidly dissected. We then verified the effect of Haloperidol on SMN expression on these samples. Tissues were homogenized on ice using a pestle homogenizer in radioimmunoprecipitation assay buffer (RIPA lysis buffer) (Merck Life Sciences) supplemented with 1 mM PMSF, 1 mM DTT, 2 mM sodium orthovanadate (ThermoFisher Scientific) and 1× cOmplete™ Protease Inhibitor Cocktail (Merck Life Sciences). Sample homogenates were incubated on ice for 20 min before being centrifuged for the insoluble material separation at 14,000×g for 20 min at 4° C. Total protein concentration was assayed on supernatants using Bradford reagent (Bio-Rad). Protein denaturation was performed with NuPAGER LDS Sample Buffer supplemented with NuPAGE® Sample Reducing Agent (ThermoFisher Scientific), by heating at 95° C. for 5 min. SDS-PAGE and transfer were performed on 4-20% Mini-PROTEAN® TGX™ Precast Protein Gels and Trans-Blot® Turbo™ mini nitrocellulose membranes using a Trans-Blot® Turbo™ transfer System (Bio-Rad), respectively. Nonspecific binding sites were blocked using 5% nonfat dried milk in PBS-0.2% Tween-20 (Merck Life Sciences) (PBS-T) for 1 h at RT under shaking. […] Immunolabeling was detected with Clarity™ Western ECL Blotting Substrates (Bio-Rad) using the ChemiDoc™ imaging system (Bio-Rad). Densitometric quantitation of bands was performed with Fiji (Image J, NIH).

SMN protein = SMN protein levels by Western blotting in fibroblasts derived from SMA type II patients; assay type: cell-based, human; conditions: 72 h, compared to 0.5% DMSO, single samples
Protocol: (§3) Fibroblasts derived from SMA patients (GM03813; Coriell Cell Repositories) were grown at 37° C. in cell culture bottles with Dulbecco's Modified Eagle Medium (DMEM; Gibco) and […] glucose. The medium was supplemented with penicillin (100 U/ml) and streptomycin ([…]) [1% P/S; Gibco] and 10% inactivated fetal bovine serum (FBS; Gibco).
(§4) For RNA extraction 400,000 GM03813 fibroblasts were seeded in 60 mm culture dishes in 4 ml of supplemented DMEM medium. The following day the medium was changed, and the candidate compound was added at its maximum non-toxic concentration. The cells were incubated for 48 hours and then washed with 1× PBS and collected in sterile 1.5 ml tubes. The same was done for the evaluation of the effect of haloperidol on the level of SMN protein (example 2) with the difference that 1,000,000 fibroblasts were used in a 100 mm cell culture plate and that the cells were collected after […] with a RIPA protein extraction buffer supplemented with a protease inhibitor cocktail (cOmplete; Roche).
Fibroblasts derived from SMA type Il patients were incubated with haloperidol at three concentrations for 72 h. 10 μg of protein extracted from cells treated with haloperidol were separated by electrophoresis with acrylamide/bis-acrylamide gels SDS-PAGE with the Mini-protean Electrophoresis System (Bio-Rad). After electrophoresis was carried out, the proteins were transferred to a nitrocellulose membrane (GE Healthcare) using a semi-dry electro-transfer system (Bio-Rad) for one hour with a constant voltage of 15 V. The membranes were incubated with a blocking solution (5% skim milk in PBST, 1× PBS, 0.1% Tween 20) for at least 1 h at room temperature. […]
Chemiluminescence was detected using SuperSignal West Pico Sensitivity Substrate (Pierce) and acquired with ImageQuant LAS 4000 (GE Healthcare). […] Statistical significance was calculated using the Student's t-test (* p<0.05, ** p<0.01, *** p<0.001).

SMN2 FL transcript = test: qPCR quantification of SMN2 full length (FL) transcript in SMA fibroblasts; assay type: cell-based, human; set-up: key to SMN2 FL isoform levels: relative expression (2^-ΔΔCt), normalized to reference gene; conditions: for SMN2 FL isoform levels: 48 hours, GM03813 fibroblasts, normalized to GAPDH, each of 3 samples
Protocol: as §3, §4
(§5) Extraction of RNA from cells was carried out with ReliaPrep™ RNA Cell Miniprep System (Promega), following the manufacturer's instructions. […] RNA concentration and salt contamination were measured with the NanoDrop spectrophotometer (ThermoFisher). The samples were stored at −80° C. […] of total RNA was retrotranscribed using SuperScript III retrotranscriptase (Invitrogen) following the manufacturer's instructions. Genomic DNA contamination was monitored in the RNA samples without the addition of retrotranscriptase.
(§6) For the quantification of the SMN2 full length (FL) and SMN2 without exon 7 (Δ7) transcripts, qPCR Probe Mix (Solis Biodyne) was used. The reaction was carried out in a multiplex manner, in which the signal from the SMN2 and GAPDH probe was read in a single reaction. 10 ng of cDNA was used as a standard and the concentration of both probes was 250 nM.
(§7) Primer sets for detection of SMN2 FL or Δ7 isoforms were used at a final concentration of 500 nM while the concentration of the primer set used for GAPDH was 150 nM. All reactions were carried out using a Step-One Real-Time PCR thermocycler (Applied Biosystems). In all cases, the experiment included 3 biological samples and three technical replicates for each sample. Expression levels were normalized to the reference gene using a 2-^ΔΔCt method. Primers were obtained from Naryshkin, N. A. et al. Science (2014) 345, 688-693.
(§8) The selected SMA fibroblast line has 3 copies of the SMN2 gene and homozygous deletion of Ex7-Ex8 in SMN1 and therefore only SMN2 gene transcripts were measured. The conditions for cell cultures and extraction protocols are described in Example 1.

SMN2 Δ7 transcript = test: qPCR quantification of SMN2 without exon 7 (Δ7) transcript in SMA fibroblasts; assay type: cell-based, human; set-up: key: relative expression (2^-ΔΔCt), normalized to reference gene; conditions: 48 hours, GM03813 fibroblasts, normalized to GAPDH, each of 3 samples
Protocol: as §3, §4, §5, §6, §7, §8

[2] = tested on: SMA motoneurons derived from hiPSCs; test: Survival rate of hiPSC-derived SMA motoneurons (ISL1-positive cells); assay type: cell-based, human; conditions: 10 days of treatment
Protocol: (B) SMA MNs survival rate analysis after 10 days of treatment at a range of concentrations. […] Kenpaullone (Ken) at 10 μM was used as as positive control in those experiments.
For spinal motor neurons (MNs) differentiation from hiPSCs, we used a previously reported protocol [Maury et al., 2015]. HiPSC were incubated in suspension in a neural induction medium containing DMEM/F12 and Neurobasal medium supplemented with B27 (Life Technologies), N2 Supplement (Life Technologies), Pen-Strep 0.1%, β-Mercaptoethanol (β-ME) 0.1% (Life Technologies), Ascorbic Acid (0.5 μM, Sigma-Aldrich), Chir99021 (3 μM, Stemgent), SB431542 (20 μM, Tocris), LDN 193189 (0.2 μM, Stemgent) and Y-27632 (10 μM, Stemcell) at a density of 0.2×10^6 cells/ml in T25 flask or 0.25×10^6 cells/ml in spinner flask. After 2 days, caudalization of the neural progenitors was obtained by addition of retinoic acid (RA 0.1 μM) and smoothened agonist (SAG, 0.5 μM). After 1 week in suspension, brain-derived neurotrophic factor (BDNF, 10 ng/ml), glial-derived neurotrophic factor (GDNF, 10 ng/ml), and N-[N-(3,5-Difluorophenacetyl)-L-alanyl]-S-phenylglycine t-butyl ester (DAPT, 10 nM) were added in the medium without SB431542 and LDN193189. Between day 10 and 14, MN progenitors are converted into MNs. […]
The survival of MNs was determined by quantifying the number of ISL1-positive cells in each condition.

[3] = tested on: myoblasts derived from SMA type II patients (KM1150SMAII7PV); test: Fusion index of immortalized myoblasts derived from SMA type II patients; assay type: cell-based, human; conditions: 72 h, healthy myoblasts about 68%, patient myoblasts 50%
Protocol: Fusion index of immortalized myoblasts derived from patients with SMA type II. […] Healthy (control; abbreviated as CON) and solvent-treated 25 SMA myoblasts (0.5% DMSO) were used to establish a difference in the differentiation process. Risdiplam at 1 μM was used as a positive control. Nuclei were labeled with 4′,6-diamidino-2-phenylindole (DAPI) and myoblasts were detected using an anti-Desmin antibody. Multinuclear myotubes are marked with white arrows. The fusion index of DMSO-treated healthy and SMA differentiated myoblasts, and compound-treated SMA myoblasts, was calculated. Data were collected after analysis of at least 100 cells and statistics were calculated using Student's t-test (*p<0.05, **p<0.01, ***p<0.001).
For myoblast immunostaining, 40,000 cells were seeded in a 24-well plate (previously covered with collagen) with 400 μl of KMEM medium and incubated overnight. The following day the medium was changed for the DMEM Glutamax 4.5 g (Gibco) differentiation medium supplemented with 2% horse serum (Sigma); penicillin (100 U/ml) and streptomycin (100 mg/ml) [1% P/S; Gibco], gentamicin (50 μg/ml; Sigma) and insulin (10 μg/ml; Sigma). […] The cells were incubated for 72 h with the compounds and fixed in 4% paraformaldehyde for 10 minutes. All cell cultures were incubated at 37° C. with 5% CO2.
Nuclei were stained with DAPI. […]

delta 7 SMA mice [4] = test: NMJ innervation of quadriceps muscles in delta 7 SMA mice; assay type: in vivo; conditions: mean ± SEM, sham 33.75±1.31%
SMA Δ7 mice = test: Body weight and behavioral motor tests in SMA Δ7 mice; assay type: in vivo
Protocol: FIG. 4. Effect of Haloperidol treatment on weight and motor performances of SMN Δ7 mice. […] VHL (vehicle, 0.9% saline solution with 2% DMSO) n=8, HALO (haloperidol) n=5. Results are expressed as mean±SEM (two-way ANOVA, * p≤0.05; ** p≤0.01; *** p≤0.001; **** p≤0.0001).
as §1, §2
During the whole period, the animals underwent a number of behavioral motor tests: tail suspension test, righting reflex, hindlimb suspension test, negative geotaxis (El-Khodor et al. 2008, Boido et al. 2018). Mice were evaluated daily starting from P2 for body weight and behavioral performances: • Tail suspension test (self-clasping): pups were suspended by the tail for 15 s, and their hind-limb posture was scored in a scale from 4 (normal) to 0 (clasping); • Righting reflex: pups were placed on their backs on a flat surface; their success or failure to reposition themselves dorsal side up was assessed over a 30 s period; • Negative geotaxis test: starting from P4, pups we placed on an inclined grid with the mouse head facing down (cut off: max 60 s).

delta 7 SMA mice [5] = test: Muscular fiber morphology of quadriceps in delta 7 SMA mice; assay type: in vivo; conditions: P12, 10 days at 0.5 mg/kg, versus sham
Protocol: FIG. 9. The effect of haloperidol on muscular fiber morphology in the skeletal muscles of delta 7 mice. Comparison of quadriceps fiber morphology between sham (0.9% saline solution with 2% DMSO) and haloperidol-treated delta 7 SMA mice at P12. The measurements of the muscle fiber area (A), perimeter (B), and maximum and minimum Feret's diameter of muscle fibers (C). At least 100 fibers were analyzed from each animal; the results are shown as the averages obtained from the individual animals.
We first performed morphological analyses of the H/E-stained quadriceps muscles from mice at postnatal day 12 (P12) after 10 days of treatment with haloperidol at 0.5 mg/kg and compared it to mice treated with sham. Specifically, for the morphological analysis of quadriceps skeletal muscle sections were stained with H/E, as previously described (Valsecchi et al. (2015); Rindt et al. (2015)). To morphologically evaluate mean fiber area, perimeter, minimum and maximum Feret's diameter, more than 100 fibers for each animal were drawn with Neurolucida software (MicroBrightField Inc.) and a computer-assisted microscope (Nikon Eclipse E600 microscope). Data were obtained by the associated data analysis software NeuroExplorer (MicroBrightField): we then averaged the means obtained from single animals. Images of skeletal muscles fibers were acquired with Zeiss Axioscan Z.1 digital slide scanner microscope (Carl Zeiss AG).

[6] = 0.5 mg/Kg subcutaneously daily P2 to P12, versus VHL

## O=C(CCCN1CCC(O)(c2ccc(Cl)cc2)CC1)c1ccc(F)cc1 [haloperidol]
[1]
  area of myotubes in co-culture: increases the area of myotubes
  survival rate of SMA MNs in co-culture: increases the survival rate of SMA MNs
SMN; diaphragm
  SMN expression increase compared to VHL: 23%
SMN; gastrocnemius
  SMN expression increase compared to VHL: 102%
SMN; quadriceps
  SMN expression increase compared to VHL: 123%
SMN; spinal cord
  SMN expression increase compared to VHL: 58%
SMN protein; 25 μM
  SMN protein levels: 1.132 and 1.751 and 1.745
SMN protein; 37.5 μM
  SMN protein levels: 2.265 and 2.211 and 2.469
SMN protein; 50 μM
  SMN protein levels: 2.413 and 2.453 and 2.614
SMN2 FL transcript; 10 μM
  SMN2 FL isoform levels: 1.10 and 1.03 and 1.06
SMN2 FL transcript; 25 μM
  SMN2 FL isoform levels: 1.15 and 1.37 and 1.07
SMN2 FL transcript; 37.5 μM
  SMN2 FL isoform levels: 1.32 and 1.47 and 1.51
SMN2 FL transcript; 50 μM
  SMN2 FL isoform levels: 2.54 and 2.11 and 2.33
SMN2 FL transcript; at the highest concentration
  amount of FL SMN2 transcript: doubled
SMN2 Δ7 transcript; 10 μM
  SMN2 Δ7 isoform levels: 0.90 and 0.89
SMN2 Δ7 transcript; 25 μM
  SMN2 Δ7 isoform levels: 1.00 and 1.06 and 1.04
SMN2 Δ7 transcript; 37.5 μM
  SMN2 Δ7 isoform levels: 0.96 and 1.01 and 1.03
SMN2 Δ7 transcript; 50 μM
  SMN2 Δ7 isoform levels: 1.89 and 1.23
[2]; 0.32 μM
  SMA motoneurons survival rate: almost completely rescue
[2]; versus kenpaullone at 10 μM
  SMA motoneurons survival rate compared with positive control: more efficient than the positive control kenpaullone
[3]; 2.5 μM
  fusion index: 66.7%
Delta 7 SMA mice [4]
  denervated endplates: 9.50±1.50%
SMA Δ7 mice; [6]
  body weight: significant weight increase
  negative geotaxis test: improved motor performances
  righting reflex test: improved motor performances
  tail suspension test: improved motor performances
SMA Δ7 mice; murine SMA model, haloperidol administration
  side effects (behavioral changes or sedation phenotypes): not associated with any conspicuously deleterious or undesirable side effects
Delta 7 SMA mice [5]
  increase in Max Feret's diameter: +40%
  increase in fiber area: +104%
  increase in fiber perimeter: +43%
  increase in min Feret's diameter: +49%

## Cc1cn2nc(-c3cc(=O)n4cc(N5CCNC6(CC6)C5)ccc4n3)cc(C)c2n1 [risdiplam]
[3]; 1 μM (positive control)
  fusion index: 66.7%
